Data on one compound can be found in patent publication US9604932B2 (priority 2013, dated 2017).

SMILES strings stand for the structures.

The conditions of series [1]: cited from earlier work.
Series [2] is described as follows: Plasma pharmacokinetics in sheep (release of R-100 from R-107), LCMS. It is filed as in vivo. Particulars: IV R-100 20 mg/kg bolus. The method, then: In the following two experiments, the pharmacokinetic of releasing R-100 from R-107, via R-105 that is the reduced form of R-100, was studied in vivo according to the protocol described herein.
100 μl aliquots plasma obtained from R-107-treated sheep or pig were thawed and 200 μl ice-cold ethanol was added to each 100 μl sample to precipitate protein. Samples were then vortexed, placed on ice for 10 minutes, and then spun down at room temperature for 15 minutes. A first 100 μl supernatant from each spun sample was withdrawn and placed in a labeled HPLC micro vial to which 300 μl MPA (LC mobile phase A) was added, and the vial contents were then mixed and submitted for LCMS analysis (kept at 4° C.). The concentration of R-107 was measured in this sample as was the concentration of R105. A second 100 μl supernatant from each spun sample was added to a labelled HPLC micro vial to which 300 μl MPA and 2 μl of Reducing solution (ascorbic acid, 1.0 mg/ml in water) were added. These vials were vortexed; incubated at 50° C. for 1 hour with gentle shaking; and were then cooled to 4° C. and submitted for LCMS analysis. This sample was analyzed for R105, i.e., reduced form of R-100, and the amount measured thus represents the sum of R-100 and R-105 originally present in the plasma. The concentration of R-100 can be calculated from that of the R-105 in the second sample minus that of R-105 in the first sample. However, the concentrations of R-105 were seen to be low (approximately 10% or less of those of R-100) and so the results reported below as R-100 are not corrected for R-105.
Sets of standards (R-100, R-105 and R-107) were prepared by spiking individually in pig plasma. 100 μl aliquots of these spiked plasma samples, after thawing, were included in the above extraction protocol.
Analysis method were carried out with an Agilent HPLC stack, with column eluate directed, via a diverter valve, into the source of an AB Sciex ‘Qstar Elite’ Hybrid TOF, high-resolution mass spectrometer. LC column: Phenomenex Kinetex C18 2.6u 100A, 2.1×50 mm. LC mobile phase A: H2O with 0.02% trifluoroacetic acid (TFA), 0.1% formic acid (HOF); Phase B: acetonitrile (ACN) with 0.02% TFA, 0.1% HOF. Mobile phase flow rate=500 μl/min. Injection size: 8 μl, via Agilent 1100 u-WPS autosampler. […]

On to `CC1(C)CC(CO[N+](=O)[O-])C(C)(C)N1[O]` (centres unmarked) [R-100, 3-nitratomethyl-2,2,5,5-tetramethylpyrrolidinyloxy, reference compound], for which the “Solubility in organic solvents” value in series [1] is “soluble in certain organic solvents such as dimethyl sulfoxide (DMSO)”. Moreover, the Solubility in water entry in series [1] is on record as “highly insoluble in water”. In addition, the R-100 in plasma in series [2] (0 hrs post dose) came out at 0 µg/mL; in series [2] (0.08 hrs post dose), 6.72 µg/mL; in series [2] (0.17 hrs post dose) it was 6.11 µg/mL; in series [2] (0.25 hrs post dose) it was 5.31 µg/mL; in series [2] (0.5 hrs post dose), 2.72 µg/mL; in series [2] (1 hrs post dose), 1.63 µg/mL. Moreover, the R-100 in plasma was 0.7 µg/mL in series [2] (2 hrs post dose), 0.28 µg/mL in series [2] (4 hrs post dose) and 0.03 µg/mL in series [2] (8 hrs post dose).
